US20200353107A1, “IN VIVO IMAGING OF TUMOR INFILTRATION LEUKOCYTES” (STC.UNM, priority 2017, published 2020)

Key:
LFA-1 receptor = target: T1, LFA-1 receptor (Mus musculus, UniProt P24063); assay: SPECT/CT imaging of mice after intravenous injection of the radioligand; format: in vivo
T1 construct: Leukocyte function-associated antigen-1 (LFA-1) receptors are normally expressed by all white blood cells; from tissue; host or cells: live mice (leukocytes in vivo)
Method: Mice are imaged with the Bioscan NanoSPECT/CT imaging system. Dynamic images are obtained immediately following injection of ˜750 uCi of ^111In-ROTA-alkylamino-NorBIRT intravenously. Static images are also obtained at 2, 4, and 24 hours post injection. Images are individually characterized.

[1] = Biodistribution study (gross dissection and tissue harvest); format: in vivo, mice; conditions: dissection at 18 and 24 hrs post-inoculation
Method: […] Results are evaluated as the percent injected dose per gram of tissue. The organs assessed are the heart, blood, stomach, liver, spleen, adrenals, kidneys, bone, muscle, bladder, testes, as well as the abcess or site of infection.

T1 sequence (P24063 24-1162): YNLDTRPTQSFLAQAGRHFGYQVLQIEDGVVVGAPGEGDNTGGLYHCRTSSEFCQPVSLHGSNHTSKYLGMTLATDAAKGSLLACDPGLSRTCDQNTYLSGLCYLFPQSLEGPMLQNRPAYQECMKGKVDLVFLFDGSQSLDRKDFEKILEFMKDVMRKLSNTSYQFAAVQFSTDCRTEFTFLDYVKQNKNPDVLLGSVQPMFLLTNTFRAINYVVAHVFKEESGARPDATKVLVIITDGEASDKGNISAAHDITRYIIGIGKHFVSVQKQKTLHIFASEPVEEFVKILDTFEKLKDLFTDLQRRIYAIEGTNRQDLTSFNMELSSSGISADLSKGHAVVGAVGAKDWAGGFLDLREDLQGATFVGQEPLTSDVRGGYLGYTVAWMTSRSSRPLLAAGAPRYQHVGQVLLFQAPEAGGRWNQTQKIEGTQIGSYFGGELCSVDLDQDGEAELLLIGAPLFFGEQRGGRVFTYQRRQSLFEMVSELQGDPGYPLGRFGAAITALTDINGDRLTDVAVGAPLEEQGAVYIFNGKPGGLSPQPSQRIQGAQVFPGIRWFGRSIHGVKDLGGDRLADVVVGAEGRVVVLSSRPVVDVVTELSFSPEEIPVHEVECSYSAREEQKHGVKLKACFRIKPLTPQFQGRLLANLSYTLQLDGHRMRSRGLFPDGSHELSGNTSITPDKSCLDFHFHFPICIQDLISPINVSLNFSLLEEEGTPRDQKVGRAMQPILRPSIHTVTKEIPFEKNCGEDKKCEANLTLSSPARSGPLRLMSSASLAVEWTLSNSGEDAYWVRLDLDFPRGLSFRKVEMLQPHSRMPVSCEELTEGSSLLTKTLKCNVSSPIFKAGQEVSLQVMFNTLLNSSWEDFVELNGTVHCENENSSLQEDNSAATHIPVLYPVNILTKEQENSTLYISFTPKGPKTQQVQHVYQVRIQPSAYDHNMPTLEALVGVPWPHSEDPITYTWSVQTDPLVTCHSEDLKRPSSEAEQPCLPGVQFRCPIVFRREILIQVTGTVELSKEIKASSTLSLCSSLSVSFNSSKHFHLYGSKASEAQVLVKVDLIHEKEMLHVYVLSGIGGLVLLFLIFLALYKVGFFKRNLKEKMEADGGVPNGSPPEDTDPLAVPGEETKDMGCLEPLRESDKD
T1 sequence (P11835 24-771 partner): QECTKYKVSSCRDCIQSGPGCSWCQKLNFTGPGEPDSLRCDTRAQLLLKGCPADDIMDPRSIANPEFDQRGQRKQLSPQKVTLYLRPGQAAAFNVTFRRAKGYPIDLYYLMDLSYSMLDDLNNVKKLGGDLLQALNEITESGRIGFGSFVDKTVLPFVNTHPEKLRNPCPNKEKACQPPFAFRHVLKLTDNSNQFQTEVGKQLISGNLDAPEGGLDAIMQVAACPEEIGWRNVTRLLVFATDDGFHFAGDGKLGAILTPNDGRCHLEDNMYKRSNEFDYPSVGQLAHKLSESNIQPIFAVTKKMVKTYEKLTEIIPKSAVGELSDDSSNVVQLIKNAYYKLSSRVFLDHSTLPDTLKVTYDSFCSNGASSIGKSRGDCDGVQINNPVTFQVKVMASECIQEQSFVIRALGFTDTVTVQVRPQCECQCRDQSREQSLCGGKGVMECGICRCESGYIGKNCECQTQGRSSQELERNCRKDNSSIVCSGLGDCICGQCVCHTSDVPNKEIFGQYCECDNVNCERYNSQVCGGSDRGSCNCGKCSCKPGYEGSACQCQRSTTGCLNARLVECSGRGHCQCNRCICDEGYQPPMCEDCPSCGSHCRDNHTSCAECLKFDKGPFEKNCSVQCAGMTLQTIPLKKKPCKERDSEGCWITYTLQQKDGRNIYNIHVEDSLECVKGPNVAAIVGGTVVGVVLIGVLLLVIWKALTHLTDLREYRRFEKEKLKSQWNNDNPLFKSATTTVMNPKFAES

## ^111In-DOTA-alkylamino-NorBIRT [^111In-alkylaminoNorBIRT]
LFA-1 receptor; 5 minutes post-injection
  uptake/retention at the tumor, early images: high concentrations
LFA-1 receptor; SPECT/CT images
  focal retention in other tissues: no focal retention in any other tissues
  radioactivity in the bladder: prompt and significant radioactivity in the bladder
LFA-1 receptor; SPECT/CT images, mice, i.v.
  uptake in the tumor in SPECT/CT images: focal uptake in the tumor
LFA-1 receptor; all time points, including 24 hours post-injection
  persistence of focal tumor uptake: persists at all time points
LFA-1 receptor; as soon as 5 minutes post-injection and at all subsequent time points
  urinary excretion in SPECT/CT images: prompt and significant urinary excretion
LFA-1 receptor; in vivo SPECT/PET imaging of tumor sites
  selectivity as imaging probe for LFA-1 receptor expression: highly selective imaging probes
[1]
  agreement of biodistribution data with image-based pharmacokinetic data: correlate well with image-based pharmacokinetic data
